One may read the melting point as the temperature of the solid-liquid transition.

Data set [1] has as its system normal human epidermal cells. Briefly: Evaluation for glutathione production promoting activity (total glutathione amount, glutathione reductase recycling assay). The following applies: for GSH (pmol/μg-protein) Mean ± S.D.: 24-hour cultivation, n=4; for glutathione production promoting activities compared with Nahlsgen: summary of Tables 5-1 and 5-2. The data set is classed as cell-based. The method, then: D-2-Amino-8-phosphonooctanoic acid monohydrate obtained in Example 8, which was used as a sample, was evaluated for glutathione production promoting activity by the following method (n=4).
Specifically, normal human epidermal cells were seeded in a 96-well microplate at a density of 2.0×10^4 cells per 96 wells, using a normal human epidermal keratinocyte growth medium HuMedia KG2 (trade name, supplied by Kurabo Industries Ltd.).
After 24 hours from the seeding, the medium was exchanged with a normal human epidermal keratinocyte growth medium HuMedia KB2 (trade name, supplied by Kurabo Industries Ltd.) containing the sample in a predetermined concentration, and the cultivation was continued. As a blank, the cells were cultured by a procedure similar to above, except for not using the sample.
After 24-hour cultivation, the cells were disrupted by ultrasonication using a phosphate buffer containing 100 μM phenylmethylsulfonyl fluoride, and the total glutathione amount was determined by glutathione reductase recycling assay.
Specifically, a suspension of the disrupted cells were mixed with reduced nicotinamide adenine dinucleotide phosphate and glutathione reductase, followed by reaction at 37° C. for 10 minutes.
Next, 0.1 M phosphate buffer (containing 0.5 M EDTA, pH 7.5) containing dissolved 10 mM 5,5′-dithiobis(2-nitrobenzoic acid) was added, and the mixture was incubated for 30 minutes. The absorbance at 450 nm was measured immediately after addition, and after incubation for 30 minutes. The difference in absorbance, which is calculated by subtracting the absorbance immediately after addition from the absorbance after 30-minute incubation, was defined as an index for glutathione synthesis quantity.
The total glutathione amount in the disrupted cell suspension was determined on the basis of a calibration curve plotted using oxidized glutathione. The protein content in the disrupted cell suspension was determined using the Pierce Microplate BCA Protein Assay Kit (Thermo SCIENTIFIC). The glutathione synthesis quantity was evaluated for differences from the untreated specimen (blank) and from the positive object by a significant difference test using Student's t-test. The results of the tests, each of which was performed two times, are given in Tables 4-1 (first test) and 4-2 (second test).
Tests were performed (n=4) to determine glutathione production promoting activity by a procedure similar to above, except for using, as a sample instead of D-2-amino-8-phosphonooctanoic acid monohydrate, D-2-amino-4-phosphonobutanoic acid L-Arg salt obtained in Example 2, or D-2-amino-4-phosphonobutanoic acid D-Arg salt monohydrate obtained in Example 3.
A test as a referential example was also performed by a procedure similar to above, except for using Nahlsgen (generic name: DL-2-amino-4-[(RSp)-(3-carboxymethylphenoxy) (methoxy)phosphoryl]butanoic acid), instead of the sample.

The conditions of data set [2]: room temperature; amorphous powdery solid obtained through lyophilization; cited from earlier work.
In data set [3] the target is gamma-glutamyl transpeptidase (GGT) (Homo sapiens, UniProt P19440). The following applies: known from Patent Literature (PTL) 1; cited from earlier work.
Sequence of gamma-glutamyl transpeptidase (GGT) (P19440 whole entry, species assumed): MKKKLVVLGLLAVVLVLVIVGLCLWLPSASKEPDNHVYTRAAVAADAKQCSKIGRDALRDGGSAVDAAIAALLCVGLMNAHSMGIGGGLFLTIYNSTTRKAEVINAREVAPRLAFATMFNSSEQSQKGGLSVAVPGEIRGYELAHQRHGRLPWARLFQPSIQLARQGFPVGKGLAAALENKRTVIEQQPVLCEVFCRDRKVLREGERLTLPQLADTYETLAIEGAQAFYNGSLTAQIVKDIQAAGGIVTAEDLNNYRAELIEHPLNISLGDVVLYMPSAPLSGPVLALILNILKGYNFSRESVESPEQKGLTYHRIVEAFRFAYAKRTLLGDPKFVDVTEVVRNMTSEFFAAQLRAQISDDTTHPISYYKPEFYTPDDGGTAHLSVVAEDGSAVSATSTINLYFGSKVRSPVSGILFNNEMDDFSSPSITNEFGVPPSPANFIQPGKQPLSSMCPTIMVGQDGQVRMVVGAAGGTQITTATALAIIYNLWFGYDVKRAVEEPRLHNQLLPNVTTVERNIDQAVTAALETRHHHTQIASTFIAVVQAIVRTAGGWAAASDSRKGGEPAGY
[4] abbreviates: Table 5-1, first test, 10.00 μmol/L.
Setting [5] is: Table 5-2, second test, 10.00 μmol/L.
[6] abbreviates: Table 5-2, second test, 50.00 μmol/L.
Setting [7] is: Table 5-1, first test, 2.00 μmol/L.
[8] abbreviates: Table 5-1, first test, 50.00 μmol/L.
The mark [9] stands for this setting: Table 5-1, first test, 250.00 μmol/L.
Setting [10] is: Table 5-2, second test, 2.00 μmol/L.
The mark [11] stands for this setting: Table 5-2, second test, 250.00 μmol/L.

The compound `N[C@@H](CCCCCCP(=O)(O)O)C(=O)O.O` (hydrate or solvate) yielded a melting point of 73 °C.
Regarding `N[C@H](CCCCCCP(=O)(O)O)C(=O)O.O` (hydrate or solvate) [D-2-amino-8-phosphonooctanoic acid monohydrate], the melting point was 75.3 °C.
As for `COP(=O)(CCC(N)C(=O)O)Oc1cccc(CC(=O)O)c1` (racemic) [Nahlsgen, DL-2-amino-4-[(RSp)-(3-carboxymethylphenoxy)(methoxy)phosphoryl]butanoic acid, reference compound], the entries for the “GSH (pmol/μg-protein) Mean ± S.D.” value in data set [1] (setting [4]), in data set [1] (setting [5]) and in data set [1] (setting [6]) were 44.7 ± 2.7 pmol/μg-protein, 36.2 ± 3.4 pmol/μg-protein and 36.5 ± 3.9 pmol/μg-protein, respectively. In addition, in data set [2], the “deliquescency / decomposition on storage” value was “deliquescent and is liable to decompose at room temperature”. For the same compound, the GGT inhibitor activity result in data set [3] is listed as “excellent gamma-glutamyl transpeptidase (GGT) inhibitor”.
For `N=C(N)NCCC[C@@H](N)C(=O)O.N[C@H](CCP(=O)(O)O)C(=O)O.O` [D-2-amino-4-phosphonobutanoic acid D-Arg salt monohydrate], the “GSH (pmol/μg-protein) Mean ± S.D.” value in data set [1] (setting [7]) is listed as 38.6 ± 3.1 pmol/μg-protein; in data set [1] (setting [4]), 46.2 ± 1.8 pmol/μg-protein; in data set [1] (setting [8]) it was 36.3 ± 4.0 pmol/μg-protein; in data set [1] (setting [9]), 40.9 ± 8.1 pmol/μg-protein; in data set [1] (setting [10]), 35.8 ± 1.1 pmol/μg-protein; in data set [1] (setting [5]), 35.8 ± 1.2 pmol/μg-protein. The “GSH (pmol/μg-protein) Mean ± S.D.” value in data set [1] (setting [6]) amounted to 37.3 ± 1.9 pmol/μg-protein; in data set [1] (setting [11]), 37.1 ± 1.7 pmol/μg-protein. Besides, the “glutathione production promoting activities compared with Nahlsgen” value in data set [1] is recorded as “significant glutathione production promoting activities comparable to or higher than those of Nahlsgen”.
With `N=C(N)NCCC[C@H](N)C(=O)O.N[C@H](CCP(=O)(O)O)C(=O)O` [D-2-amino-4-phosphonobutanoic acid L-Arg salt], the “GSH (pmol/μg-protein) Mean ± S.D.” value is listed as 49.2 ± 7.5 pmol/μg-protein in data set [1] (setting [7]); 51.0 ± 1.6 pmol/μg-protein in data set [1] (setting [4]); 43.9 ± 9.3 pmol/μg-protein in data set [1] (setting [8]); 42.9 ± 9.8 pmol/μg-protein in data set [1] (setting [9]); 37.6 ± 2.2 pmol/μg-protein in data set [1] (setting [10]); 35.4 ± 2.1 pmol/μg-protein in data set [1] (setting [5]). The “GSH (pmol/μg-protein) Mean ± S.D.” value is 37.2 ± 3.0 pmol/μg-protein in data set [1] (setting [6]) and 36.3 ± 1.5 pmol/μg-protein in data set [1] (setting [11]). The “glutathione production promoting activities compared with Nahlsgen” value in data set [1] is reported as “significant glutathione production promoting activities comparable to or higher than those of Nahlsgen”.
As for `N[C@H](CCCCCCP(=O)(O)O)C(=O)O.O` [D-2-amino-8-phosphonooctanoic acid monohydrate], the “GSH (pmol/μg-protein) Mean ± S.D.” value is listed as 59.5 ± 2.0 pmol/μg-protein in data set [1] (Table 4-1, first test, 2.00 μmol/L); 60.6 ± 2.3 pmol/μg-protein in data set [1] (Table 4-1, first test, 10.00 μmol/L); 59.7 ± 8.5 pmol/μg-protein in data set [1] (Table 4-1, first test, 50.00 μmol/L); 61.0 ± 3.0 pmol/μg-protein in data set [1] (Table 4-1, first test, 250.00 μmol/L); 35.3 ± 1.7 pmol/μg-protein in data set [1] (Table 4-2, second test, 2.00 μmol/L); 34.8 ± 1.9 pmol/μg-protein in data set [1] (Table 4-2, second test, 10.00 μmol/L). For the same compound, the “GSH (pmol/μg-protein) Mean ± S.D.” value was 34.8 ± 2.6 pmol/μg-protein in data set [1] (Table 4-2, second test, 50.00 μmol/L) and 33.6 ± 2.3 pmol/μg-protein in data set [1] (Table 4-2, second test, 250.00 μmol/L). Besides, the “glutathione production promoting activity as compared with the blank” value in data set [1] (summary of Tables 4-1 and 4-2, versus untreated specimen) is “significant glutathione production promoting activity”.

Source of the values: patent publication US11220521B2, “Optically-active 2-amino-phosphonoalkane acid, optically-active 2-amino-phosphonoalkane acid salt, and hydrates of these” (priority 2017, dated 2022).
